Reference: patent US7655392B2, “Quenching methods for red blood cell inactivation process” (priority 2004, dated 2010)
Marks after values point to notes of the source that are not given here.

Tested on: red blood cells
Assay: Gel card agglutination with rabbit anti-acridine sera
Assay type: cell-based
Protocol: The reduction in modification of red blood cells in the methods of the present invention can be evaluated by several assays. In one assay, rabbit polyclonal sera that is reactive with acridine is produced by injecting New Zealand White rabbits with an acridine compound conjugated to KLH.
This is conjugated to KLH by adding 10 μL of the compound (10 mM in de-ionized water) to 990 μL of a buffered solution of KLH (10 mg/mL in 50 mM Phosphate, 150 mM NaCl, PBS pH=7.2 with proprietary stabilizer, Pierce Cat # 77600) and incubating at room temperature for over 20 hours. Following this incubaton, the conjugated KLH is isolated from the unreacted S-197 and S-197 by-products by passing through a desalting column (e.g. D-salt columns, Pierce) and eluting in PBS buffer. The colored fractions of the solutions are then combined and the KLH conjugates are characterized by the ratio of absorbance at 210 and 410 nm. The acridine-KLH conjugate solutions are mixed with Complete Freund's Adjuvant for intramuscular injection into the rabbits at multiple sites to immunize the rabbits. […] The resulting solution can be assayed for agglutination by passing through a Buffer Gel Card (Micro Typing Systems, Pompano Beach, Fla.). The gel cards are designed to allow non-agglutinated red blood cells to pass through, while cells agglutinated by reaction with the rabbit sera and cross reacting with the anti-rabbit antibody will remain at the top of the gel. The cards are scored as 0, 1+, 2+, 3+, or 4+, where 0 indicates all cells are intact and are at the bottom of the gel, while 4+ indicates complete agglutination, with all cells at the top of the gel.
In these, the appropriate amount of 600 mM stock was added, mixed with an appropriate volume of 8% dextrose to provide the same volume addition to each RBC sample where in one study, with varied glutathione concentrations, the pH was measured after adding glutathione and after adding PIC-1. […] Similar samples were also assessed for the inactivation of S. epidermidis. […] For gel card analysis, after incubation, the RBC were washed in BBS and were diluted in BBS to a final hematocrit of 4%. A 25 μL aliquot of each was mixed with 15 μL of rabbit polyclonal anti-acridine sera diluted either 1:4 or 1:100 in BBS and the mixture was incubated at 37° C. for 30 minutes. The cells were subsequently washed with 1.5 mL BBS. […]
Heterophile antibodies are naturally occurring antibodies that recognize RBC from another species in a non-specific fashion. […] All samples were mixed with quencher first, then PIC-1 at 0.2 mM.
The standard condition was included, i.e. 0.2 mM PIC-1 and 2 mM acidic glutathione added together.

O=C(CCNc1c2ccccc2nc2ccccc12)OCCN(CCCl)CCCl [PIC-1]
Gel card score (Table 11A samples, rabbit sera 1:4, all samples): 4+
Gel card score (Table 11B: 2 mM GSH, 1 eq. base, 0.2 mM PIC-1, sera 1:100, secondary 1:4): 4+
Gel card score (Table 11B: 2 mM GSH, 2 eq. base, 0.2 mM PIC-1, sera 1:100, secondary 1:4): 3+
Gel card score (Table 11B: 2 mM GSH, no added base, 0.2 mM PIC-1, sera 1:100, secondary 1:4): 3+
Gel card score (Table 11B: 5 mM GSH, 1 eq. base, 0.2 mM PIC-1, sera 1:100, secondary 1:4): 3+
Gel card score (Table 11B: 5 mM GSH, 2 eq. base, 0.2 mM PIC-1, sera 1:100, secondary 1:4): 2+
Gel card score (Table 11B: 5 mM GSH, no added base, 0.2 mM PIC-1, sera 1:100, secondary 1:4): 3+/MX*
Gel card score (Table 11B: 10 mM GSH, 1 eq. base, 0.2 mM PIC-1, sera 1:100, secondary 1:4): 2+
Gel card score (Table 11B: 10 mM GSH, 2 eq. base, 0.2 mM PIC-1, sera 1:100, secondary 1:4): 1+
Gel card score (Table 11B: 10 mM GSH, no added base, 0.2 mM PIC-1, sera 1:100, secondary 1:4): 3+/MX*
Gel card score (Table 11B: 20 mM GSH, 1 eq. base, 0.2 mM PIC-1, sera 1:100, secondary 1:4): 1+
Gel card score (Table 11B: 20 mM GSH, 2 eq. base, 0.2 mM PIC-1, sera 1:100, secondary 1:4): 0
Gel card score (Table 11B: 20 mM GSH, no added base, 0.2 mM PIC-1, sera 1:100, secondary 1:4): 3+
Gel card score (Table 12: 2 mM acidic GSH, 0.2 mM PIC-1, sera 1:4, no secondary Ab): 3+
Gel card score (Table 12: 2 mM acidic GSH, 0.2 mM PIC-1, sera 1:4, secondary Ab 1:4): 4+
Gel card score (Table 12: 2 mM acidic GSH, 0.2 mM PIC-1, sera 1:100, no secondary Ab): 0
Gel card score (Table 12: 2 mM acidic GSH, 0.2 mM PIC-1, sera 1:100, secondary Ab 1:4): 4
Gel card score (Table 12: 5 mM Cys 1eq, 0.2 mM PIC-1, sera 1:4, no secondary Ab): 1+
Gel card score (Table 12: 5 mM Cys 1eq, 0.2 mM PIC-1, sera 1:4, secondary Ab 1:4): 4+
Gel card score (Table 12: 5 mM Cys 1eq, 0.2 mM PIC-1, sera 1:100, no secondary Ab): 0
Gel card score (Table 12: 5 mM Cys 1eq, 0.2 mM PIC-1, sera 1:100, secondary Ab 1:4): 1*
Gel card score (Table 12: 10 mM Cys 1eq, 0.2 mM PIC-1, sera 1:4, no secondary Ab): 0
Gel card score (Table 12: 10 mM Cys 1eq, 0.2 mM PIC-1, sera 1:4, secondary Ab 1:4): 3+
Gel card score (Table 12: 10 mM Cys 1eq, 0.2 mM PIC-1, sera 1:100, no secondary Ab): 0
Gel card score (Table 12: 10 mM Cys 1eq, 0.2 mM PIC-1, sera 1:100, secondary Ab 1:4): 0
Gel card score (Table 12: 15 mM Cys 1eq, 0.2 mM PIC-1, sera 1:4, no secondary Ab): 0
Gel card score (Table 12: 15 mM Cys 1eq, 0.2 mM PIC-1, sera 1:4, secondary Ab 1:4): 1*
Gel card score (Table 12: 15 mM Cys 1eq, 0.2 mM PIC-1, sera 1:100, no secondary Ab): 0
Gel card score (Table 12: 15 mM Cys 1eq, 0.2 mM PIC-1, sera 1:100, secondary Ab 1:4): 0
Gel card score (Table 12: 20 mM Cys 1eq, 0.2 mM PIC-1, sera 1:4, no secondary Ab): 0
Gel card score (Table 12: 20 mM Cys 1eq, 0.2 mM PIC-1, sera 1:4, secondary Ab 1:4): 0
Gel card score (Table 12: 20 mM Cys 1eq, 0.2 mM PIC-1, sera 1:100, no secondary Ab): 0
Gel card score (Table 12: 20 mM Cys 1eq, 0.2 mM PIC-1, sera 1:100, secondary Ab 1:4): 0
Gel card score (Table 12: 20 mM GSH 2eq, 0.2 mM PIC-1, sera 1:4, no secondary Ab): 0
Gel card score (Table 12: 20 mM GSH 2eq, 0.2 mM PIC-1, sera 1:4, secondary Ab 1:4): 3+
Gel card score (Table 12: 20 mM GSH 2eq, 0.2 mM PIC-1, sera 1:100, no secondary Ab): 0
Gel card score (Table 12: 20 mM GSH 2eq, 0.2 mM PIC-1, sera 1:100, secondary Ab 1:4): 0
Gel card score (Table 12: […] Cys 1eq, 0.2 mM PIC-1, sera 1:4, no secondary Ab): 2+
Gel card score (Table 12: […] Cys 1eq, 0.2 mM PIC-1, sera 1:4, secondary Ab 1:4): 4+
Gel card score (Table 12: […] Cys 1eq, 0.2 mM PIC-1, sera 1:100, no secondary Ab): 0
Gel card score (Table 12: […] Cys 1eq, 0.2 mM PIC-1, sera 1:100, secondary Ab 1:4): 3
Gel card score (Table 13: 0.2 mM PIC-1 no quencher, blood sample 1, sera 1:4): 4+
Gel card score (Table 13: 0.2 mM PIC-1 no quencher, blood sample 1, sera 1:100): 4+
Gel card score (Table 13: 0.2 mM PIC-1 no quencher, blood sample 2, sera 1:4): 4+
Gel card score (Table 13: 0.2 mM PIC-1 no quencher, blood sample 2, sera 1:100): 4+
Gel card score (Table 13: 2 mM acidic GSH, 0.2 mM PIC-1, blood sample 1, sera 1:4): 4+
Gel card score (Table 13: 2 mM acidic GSH, 0.2 mM PIC-1, blood sample 1, sera 1:100): 4+
Gel card score (Table 13: 2 mM acidic GSH, 0.2 mM PIC-1, blood sample 2, sera 1:4): 4+
Gel card score (Table 13: 2 mM acidic GSH, 0.2 mM PIC-1, blood sample 2, sera 1:100): 4+
Gel card score (Table 13: 5 mM GSH 2eq/15 mM Cys 1eq, 0.2 mM PIC-1, blood sample 1, sera 1:4): 2
Gel card score (Table 13: 5 mM GSH 2eq/15 mM Cys 1eq, 0.2 mM PIC-1, blood sample 1, sera 1:100): 0
Gel card score (Table 13: 5 mM GSH 2eq/15 mM Cys 1eq, 0.2 mM PIC-1, blood sample 2, sera 1:4): 3
Gel card score (Table 13: 5 mM GSH 2eq/15 mM Cys 1eq, 0.2 mM PIC-1, blood sample 2, sera 1:100): 0
Gel card score (Table 13: 5 mM GSH 2eq/15 mM Cys 2eq, 0.2 mM PIC-1, blood sample 1, sera 1:4): 1
